Source: US12686664B2, “SOCE inhibitors and therapeutic uses thereof” (Institut National de la Santé et de la Recherche Médicale …, priority 2020, dated 2026)

Columns and labels:
PANC-1 cells [1] = assay: PANC-1 cytotoxicity (Cell Tox green assay); assay type: cell-based; settings: 5 and 20 μM, 24 hours
Description: Analysis of Cell Proliferation. For PANC-1 cell proliferation and cell cytotoxicity measurements, […] were seeded in 96 well-plates in 100 μL of DMEM medium. Cells were incubated for 24 hours at 37° C. with 3 different SOCE inhibitors (GSK-7975-A, SKF-93365 and 6αa) at 2 different concentrations (5 and 20 μM) compared to DMSO and untreated cells. Cell proliferation was evaluated using the Cell Titer kit proliferation assay (Promega). Cytotoxicity was evaluated using the Cell Tox green cytotoxicity assay (Promega). All the kits were used following manufacturer recommendations and using a plate reader.

PANC-1 cells [2] = assay: PANC-1 cell apoptosis (AnnexinV-FiTC/PI, flow cytometry); assay type: cell-based; settings: even at a concentration of 5 μM
Description: Analysis of Cell Apoptosis. For PANC-1 cell apoptosis measurements, 5×10^6 cells were seeded in 12 well-plates. Cells were incubated for 24 hours with a test compound (GSK-7975-A, SKF-93365 and 6αa) at two different concentrations (5 and 20 μM) compared to DMSO and untreated cells at 37° C. After washing, cells were taken off plates using an enzyme-free solution. Cells were centrifuged for 5 minutes at 1500 rpm and suspended in […] of PBS containing 1 μL of AnnexinV-FiTC and 1 μL of propidium iodide (PI) for 15 minutes at room temperature in the dark. Evaluation of Annexin and PI staining was performed using a flow cytometer (Navios, Beckman Counter) to evaluate cell apoptosis and necrosis.

COc1ccc(CCOc2ccc(CCn3cnc4ccccc43)cc2)cc1 [6αa DAD 3-473, 1-[4-(4-Methoxyphenethoxy)phenethyl]-1H-benzo[d]imidazole]
cytotoxicity in cancer PANC-1 cells (PANC-1 cells [1]): induces cytotoxicity
PANC-1 cell death by apoptosis (PANC-1 cells [2]): induces PANC-1 cells by apoptosis
